Assay results: patent US20230278954A1, “BRANCHED LIPID COMPOUDS” (priority 2020, published 2023)
Where “and” joins values, the source holds several entries; their conditions need not be identical. Equal values may be shown once.

Legend:
human TLR2 [1] = biological target: T1, human TLR2 (Homo sapiens, UniProt O60603); test: Activation of human TLR2 II: HEK-BLUE-hTLR2 NF-kB/SEAP reporter assay; format: cell-based; conditions: for optical density (650 nm): screenings 1-3
T1 construct: expressed in transfected cells; host or cells: HEK-Blue hTLR2 cells
Method: The potency of the compounds as activators of human TLR-2s is tested in an in vitro assay in HEK-BLUE-hTLR2 cells.
HEK-BLUE-hTLR2 cells are designed for studying the stimulation of human TLR2 (hTLR2) by monitoring the activation of NF-kB. HEK-BLUE-hTLR2 cells are obtained by co-transfection of the hTLR2 and SEAP (secreted embryonic alkaline phosphatase) reporter genes into HEK293 cells. Stimulation with a TLR2 ligand activates NF-kB which induces the production of SEAP.
HEK-BLUE-hTLR2 cells were purchased from InvivoGen (San Diego, CA, USA). Cells were grown in DMEM supplemented with 10% FCS, 100 U/ml penicillin, 100 ug/ml streptomycin and 2 mM L-glutamine, 100 µg/mL Normocin in the presence of selection antibiotic purchased from InvivoGen and passaged when 70% confluence was reached per manufacturer’s recommendation.
i) A serial dilution of respective compounds were prepared in saline and added in […] of each dilution in triplicates per well in a flat bottom 96-well plate and placed in the incubator while waiting for the cells.
ii) Remove HEK-BLUE-hTLR2 cells in a T-75 flask from incubator and discard the growth media.
iii) Gently rinse the cells with prewarmed 10 ml of PBS
iv) Add 5 ml of prewarmed PBS and place the cells in 37° C. for 2 mins and then detach the cells by gently pipetting up and down the PBS on the surface where the cells adhere.
v) Cells suspension at the density of 280,000 cells/ml is prepared in HEK-Blue™ Detection medium which is purchased from InvivoGen and prepared according to the manufacturer’s instruction,
vi) Add immediately […] of the cell suspension per well of the plate which contains the solution of the compounds. […]

human TLR2 [2] = biological target: T1, human TLR2; test: Activation of human TLR2 III: HEK-Blue hTLR2 dose response (SEAP reporter); format: cell-based; conditions: for optical density (650 nm): screenings 1-3
Method: (§1) Toll-Like Receptor (TLR) stimulation is tested by assessing NF-KB activation in the TLR expressing cell lines. HEK-Blue h/mTLR2 cells have been stably transfected with human or mouse TLR2 and CD14. The activity of the test articles are tested on human and mouse TLR2, as potential agonists. The test articles are evaluated at seven concentrations and compared to control ligands (see list below). These steps are performed in triplicate.
(§2) A 5 µg/mL working stock was then prepared for each compound from the 20 µg/mL dilution in sterile PBS. Starting from the 5 µg/mL working stock, a series of six 1:4 serial dilutions were made by mixing 100 µL of the previous highest dilution with 300 µL sterile PBS.
(§3) The secreted embryonic alkaline phosphatase (SEAP) reporter is under the control of a promoter inducible by the transcription factor NF-κB. This reporter gene allows the monitoring of signaling through the TLR, based on the activation of NF-κB. In a 96-well plate (200 µL total volume) containing the appropriate cells (50,000 - 75,000 cells/well), 20 µL of the test article or the positive control ligand (HKLC) is added to the wells. The media added to the wells is designed for the detection of NF-κB induced SEAP expression. After a 16-24-hour incubation the optical density (OD) is read at 650 nm on a Molecular Devices SpectraMax 340PC absorbance detector.

mouse TLR2 = biological target: T2, mouse TLR2 (Mus musculus, UniProt Q9QUN7); test: HEK-Blue mTLR2 dose response (SEAP reporter); format: cell-based
T2 construct: expressed in transfected cells; host or cells: HEK-Blue mTLR2 cells
Method: as §1, §2, §3

HEK-Blue Null1 cells = test: TLR- control cell line HEK-Blue Null1 (control for human TLR2); format: cell-based
Method: as §3

HEK-Blue Null2 cells = test: TLR- control cell line HEK-Blue Null2 (control for mouse TLR2); format: cell-based
Method: as §3

[3] = Stability IV: formulation pH during accelerated storage; format: physicochemical
Method: Each compound was formulated in 0.9% w/w saline with addition of 0.1% w/w EDTA at about pH 5. The formulations were stored in the dark under accelerated conditions (40° C./75% RH) and reference formulations were stored at -80° C. At days 0, 9 and 28, samples were analysed by UHPLC and pH was measured.
The remaining ~ 1 mL of solution in the clear glass HPLC vials was stored at 40° C./75% RH and was used to measure pH at each time point.
The formulation pH data recorded at each time point are compiled in Table 19. There was a general trend for the pH to increase with time but the effect was not pronounced.

T1 sequence (O60603 21-784): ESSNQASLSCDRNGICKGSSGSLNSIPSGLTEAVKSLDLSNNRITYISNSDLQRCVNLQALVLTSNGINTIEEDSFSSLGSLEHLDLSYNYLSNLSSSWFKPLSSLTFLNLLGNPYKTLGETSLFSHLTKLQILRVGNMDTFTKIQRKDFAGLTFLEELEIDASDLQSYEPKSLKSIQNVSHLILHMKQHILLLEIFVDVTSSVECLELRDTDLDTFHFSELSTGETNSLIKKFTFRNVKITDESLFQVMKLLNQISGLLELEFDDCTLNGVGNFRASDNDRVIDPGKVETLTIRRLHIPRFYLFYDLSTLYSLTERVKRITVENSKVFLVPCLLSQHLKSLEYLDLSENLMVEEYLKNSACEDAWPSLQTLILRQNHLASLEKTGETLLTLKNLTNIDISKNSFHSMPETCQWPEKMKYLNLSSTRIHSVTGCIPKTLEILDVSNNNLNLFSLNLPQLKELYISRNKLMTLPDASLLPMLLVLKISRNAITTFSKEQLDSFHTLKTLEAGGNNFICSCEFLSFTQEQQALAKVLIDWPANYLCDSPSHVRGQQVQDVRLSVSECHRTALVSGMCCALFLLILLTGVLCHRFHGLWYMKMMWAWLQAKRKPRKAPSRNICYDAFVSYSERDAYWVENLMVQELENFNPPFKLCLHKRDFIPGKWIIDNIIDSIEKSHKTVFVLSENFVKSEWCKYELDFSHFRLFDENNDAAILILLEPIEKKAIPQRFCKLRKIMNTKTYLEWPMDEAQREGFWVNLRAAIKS
T1 sequence (Q9Y2C9 32-796 partner): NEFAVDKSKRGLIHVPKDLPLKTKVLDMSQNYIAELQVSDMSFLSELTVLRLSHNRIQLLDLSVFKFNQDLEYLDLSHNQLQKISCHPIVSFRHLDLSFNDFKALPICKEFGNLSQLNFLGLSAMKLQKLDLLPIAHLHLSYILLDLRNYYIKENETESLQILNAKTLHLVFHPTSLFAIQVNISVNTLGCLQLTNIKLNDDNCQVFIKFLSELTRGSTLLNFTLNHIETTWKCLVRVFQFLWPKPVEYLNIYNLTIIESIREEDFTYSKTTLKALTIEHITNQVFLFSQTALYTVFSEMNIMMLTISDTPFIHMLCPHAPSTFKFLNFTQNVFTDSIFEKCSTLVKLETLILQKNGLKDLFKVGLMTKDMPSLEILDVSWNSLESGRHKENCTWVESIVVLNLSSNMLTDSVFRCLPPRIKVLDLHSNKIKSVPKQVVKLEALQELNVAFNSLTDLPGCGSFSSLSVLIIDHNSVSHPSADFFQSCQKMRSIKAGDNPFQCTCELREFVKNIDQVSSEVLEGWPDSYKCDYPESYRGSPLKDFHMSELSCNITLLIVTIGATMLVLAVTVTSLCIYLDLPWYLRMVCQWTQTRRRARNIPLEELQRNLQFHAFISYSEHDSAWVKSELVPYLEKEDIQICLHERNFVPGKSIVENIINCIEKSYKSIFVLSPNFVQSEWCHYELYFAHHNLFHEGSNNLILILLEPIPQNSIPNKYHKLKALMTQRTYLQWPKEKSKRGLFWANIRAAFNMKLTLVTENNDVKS
T2 sequence (Q9QUN7 25-784): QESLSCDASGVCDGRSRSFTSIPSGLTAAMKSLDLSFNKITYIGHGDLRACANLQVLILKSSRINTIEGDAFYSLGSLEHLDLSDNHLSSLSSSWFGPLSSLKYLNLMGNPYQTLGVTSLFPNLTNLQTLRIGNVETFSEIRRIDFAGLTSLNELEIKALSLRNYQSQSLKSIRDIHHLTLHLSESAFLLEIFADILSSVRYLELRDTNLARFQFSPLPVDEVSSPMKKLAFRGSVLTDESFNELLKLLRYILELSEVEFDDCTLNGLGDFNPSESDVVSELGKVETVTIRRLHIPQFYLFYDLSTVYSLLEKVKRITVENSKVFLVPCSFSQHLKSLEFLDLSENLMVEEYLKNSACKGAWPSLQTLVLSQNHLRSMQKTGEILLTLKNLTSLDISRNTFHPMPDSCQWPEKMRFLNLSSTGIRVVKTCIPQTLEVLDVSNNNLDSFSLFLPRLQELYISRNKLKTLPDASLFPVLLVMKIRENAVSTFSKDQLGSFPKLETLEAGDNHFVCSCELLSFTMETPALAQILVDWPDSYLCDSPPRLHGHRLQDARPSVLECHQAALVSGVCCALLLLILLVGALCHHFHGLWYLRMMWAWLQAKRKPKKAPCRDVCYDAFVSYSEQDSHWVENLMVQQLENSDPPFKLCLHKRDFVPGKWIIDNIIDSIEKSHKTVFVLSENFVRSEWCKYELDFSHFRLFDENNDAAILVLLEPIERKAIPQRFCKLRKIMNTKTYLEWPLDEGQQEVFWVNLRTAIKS
T2 sequence (Q9Y2C9 32-796 partner): as the sequence (Q9Y2C9 32-796 partner) above

optical density (650 nm) (human TLR2 [1]; 0.1 ng/mL): 0.182 and 0.206 and 0.197 | optical density (650 nm) (human TLR2 [1]; 0.31 ng/mL): 0.126 and 0.115 | optical density (650 nm) (human TLR2 [1]; 0.5 ng/mL): 0.719 and 0.594 and 0.617 | optical density (650 nm) (human TLR2 [1]; 2.0 ng/mL): 1.660 and 1.529 and 1.498 | optical density (650 nm) (human TLR2 [1]; 7.8 ng/mL): 2.214 and 2.163 | optical density (650 nm) (human TLR2 [1]; 31.3 ng/mL): 2.438 and 2.327 and 2.350 | optical density (650 nm) (human TLR2 [1]; 125 ng/mL): 2.451 and 2.411 and 2.467 | EC50 (human TLR2 [1]; HEK-BLUE-hTLR2 cells): 0.605 nM | activity at TLR2 (in words) (human TLR2 [1]; HEK-BLUE-hTLR2 cells): significant activity | fold induction at 0.0001 µg/mL (human TLR2 [1]; HEK-Blue hTLR2, 0.1 ng/mL, read-out: Fold induction (ratio of average induced value to average non-induced value)): 1.9 | fold induction at 0.00031 µg/mL (human TLR2 [1]; HEK-Blue hTLR2, 0.31 ng/mL, read-out: Fold induction (ratio of average induced value to average non-induced value)): 1.2 | fold induction at 0.0005 µg/mL (human TLR2 [1]; HEK-Blue hTLR2, 0.5 ng/mL, read-out: Fold induction (ratio of average induced value to average non-induced value)): 6.2 | fold induction at 0.002 µg/mL (human TLR2 [1]; HEK-Blue hTLR2, 2.0 ng/mL, read-out: Fold induction (ratio of average induced value to average non-induced value)): 15.2 | fold induction at 0.0078 µg/mL (human TLR2 [1]; HEK-Blue hTLR2, 7.8 ng/mL, read-out: Fold induction (ratio of average induced value to average non-induced value)): 21.3 | fold induction at 0.0313 µg/mL (human TLR2 [1]; HEK-Blue hTLR2, 31.3 ng/mL, read-out: Fold induction (ratio of average induced value to average non-induced value)): 23 | fold induction at 0.125 µg/mL (human TLR2 [1]; HEK-Blue hTLR2, 125 ng/mL, read-out: Fold induction (ratio of average induced value to average non-induced value)): 23.7 | Average optical density (650 nm) (human TLR2 [2]; 0.12 pg/mL): 0.740 | optical density (650 nm) (human TLR2 [2]; 0.12 pg/mL): 0.653 and 0.759 and 0.809 | Average optical density (650 nm) (human TLR2 [2]; 0.49 pg/mL): 1.479 | optical density (650 nm) (human TLR2 [2]; 0.49 pg/mL): 1.409 and 1.507 and 1.521 | Average optical density (650 nm) (human TLR2 [2]; 1.95 pg/mL): 1.823 | optical density (650 nm) (human TLR2 [2]; 1.95 pg/mL): 1.795 and 1.757 and 1.916 | Average optical density (650 nm) (human TLR2 [2]; 7.81 pg/mL): 2.260 | optical density (650 nm) (human TLR2 [2]; 7.81 pg/mL): 2.288 and 2.168 and 2.323 | Average optical density (650 nm) (human TLR2 [2]; 31.25 pg/mL): 2.481 | optical density (650 nm) (human TLR2 [2]; 31.25 pg/mL): 2.440 and 2.485 and 2.518 | Average optical density (650 nm) (human TLR2 [2]; 125 pg/mL): 2.521 | optical density (650 nm) (human TLR2 [2]; 125 pg/mL): 2.569 and 2.508 and 2.487 | Average optical density (650 nm) (human TLR2 [2]; 500 pg/mL): 2.611 | optical density (650 nm) (human TLR2 [2]; 500 pg/mL): 2.717 and 2.590 and 2.526 | stimulatory / agonist activity for hTLR2 (in words) (human TLR2 [2]; HEK-Blue hTLR2): stimulatory activity | fold induction at 120 fg/mL (human TLR2 [2]; HEK-Blue hTLR2, 0.12 pg/mL, read-out: Fold Induction (ratio of average induced value to average non-induced value)): 10.3 | fold induction at 490 fg/mL (human TLR2 [2]; HEK-Blue hTLR2, 0.49 pg/mL, read-out: Fold Induction (ratio of average induced value to average non-induced value)): 20.5 | fold induction at 1.95 pg/mL (human TLR2 [2]; HEK-Blue hTLR2, 1.95 pg/mL, read-out: Fold Induction (ratio of average induced value to average non-induced value)): 25.3 | fold induction at 7.81 pg/mL (human TLR2 [2]; HEK-Blue hTLR2, 7.81 pg/mL, read-out: Fold Induction (ratio of average induced value to average non-induced value)): 31.4 | fold induction at 31.25 pg/mL (human TLR2 [2]; HEK-Blue hTLR2, 31.25 pg/mL, read-out: Fold Induction (ratio of average induced value to average non-induced value)): 34.5 | fold induction at 0.000125 µg/mL (human TLR2 [2]; HEK-Blue hTLR2, 125 pg/mL, read-out: Fold Induction (ratio of average induced value to average non-induced value)): 35 | fold induction at 0.0005 µg/mL (human TLR2 [2]; HEK-Blue hTLR2, 500 pg/mL, read-out: Fold Induction (ratio of average induced value to average non-induced value)): 36.3 | EC50 (human TLR2 [2]; agonism of hTLR2, HEK-Blue hTLR2): 0.214 nM | stimulatory / agonist activity for mTLR2 (in words) (mouse TLR2): stimulatory activity | pH of formulation ([3]; 0-days): 5.6 | pH of formulation ([3]; 9-days, 40° C./75% RH): 5.7 | pH of formulation ([3]; 28-days, 40° C./75% RH): 5.7
Structure (SMILES): CCCCCCCCCCCCCCC(C)C(=O)OC[C@H](CSC[C@H](N)C(=O)N[C@@H](CO)C(=O)NCCOCCOCCOCCOCCOCCOCCOCCOCCOCCOCCOCCOCCOCCOCCOCCOCCOCCOCCOCCOCCOCCOCCOCCOCCOCCOCCOCCOCCC(=O)NCC(N)=O)OC(=O)C(C)CCCCCCCCCCCCCC (stereo partly drawn) [Compound B4]
stimulatory response in HEK-Blue Null1 (human) cells (in words) (HEK-Blue Null1 cells): not observed | stimulatory response in HEK-Blue Null2 (mouse) cells (in words) (HEK-Blue Null2 cells): not observed
